Measurements: patent publication US20090012005A1, “Use of an angiotensin IV antagonist to treat insulin resistance or cardiovascular risk related to metabolic syndrome” (priority 2007, published 2009)
“Also recorded” adds a separate entry of the source. Square brackets hold non-standard residues; d marks the D form. Peptide text beside a SMILES is read from it. * marks the point of attachment. ξ: configuration not given here. β3hF = N[C@H](CC(=O)O)Cc1ccccc1; Ile(3ξ) = CCC(C)[C@H](N)C(=O)O; X1 = CC(C)C(CN)C(=O)*

What was measured:
[1] = test system: angiotensinogen (AGT) and AT1 receptor (AT1R) expression in human vascular smooth muscle cells; experiment: expression of angiotensinogen and AT1 receptors (mRNA) in primary human vascular smooth muscle cell cultures; type: cell-based; settings: for inhibition of the angiotensinogen (and AT1 receptor) response to angiotensin IV: 100 nM angiotensin IV, antagonist at increasing concentrations, given 30 minutes before angiotensin IV (FIG. 3)
Description: This effect may be measured by analyzing messenger RNA as well as the corresponding proteins.
Inhibition of these effects of angiotensin IV by candidate compounds is the foundation of the model. These cellular models encompass a screening approach as well as quantitative approaches. Angiotensin IV is used at a concentration of 100 nM, a concentration at which its binding to angiotensin II receptors is minimal.
(§1) The inventors used primary cultures and vascular muscle smooth cell lines of various species (man, rat, mouse); all cell lines in which angiotensin IV exerts stimulatory effects on the expression of angiotensinogen and angiotensin II AT1 receptors may be used. The confluent smooth muscle cells are placed in a serum-free culture medium (human vascular smooth muscle medium 2 from Promocell, or any other equivalent medium), in order to block their multiplication and to synchronize them. After 24 hours of habituation in this culture medium, the medium is replaced by fresh medium to which the various test substances are added according to the order adapted to the experimental protocol. Measurements are taken after 24 hours of treatment in the case of analyses of angiotensinogen and AT1 receptor expression. The antagonists are applied to the cells 30 minutes before angiotensin IV. The cells are exposed to 100 μU/ml of insulin to measure glucose uptake.
The results are the mean of pairs of measurements taken in human vascular smooth muscle cells from six patients.

[2] = test system: human vascular smooth muscle cells; experiment: insulin-induced 3H-deoxyglucose uptake in human vascular smooth muscle cells; type: cell-based; settings: for amplitude of maximum effect / lower plateau: inhibition of insulin-induced deoxyglucose uptake, 4-parameter logistic regression (FIG. 4); for reversion of the inhibition by angiotensin IV of insulin-induced glucose uptake: antagonist pretreatment, cells from five patients (FIG. 5)
Description: This effect by angiotensin IV is not blocked by angiotensin II AT1 receptor antagonists or by angiotensin II AT2 receptor antagonists.
Angiotensin IV inhibits insulin-induced glucose uptake in vascular smooth muscle cells by a mechanism independent of angiotensin II AT1 and AT2 receptors.
as §1
The results are the mean of pairs of measurements taken in cells from six patients.

Molecule	effect on IRAP expression [1]	effect on expression of angiotensinogen and AT1 receptors ([1]; independent of AT1 receptors (FIG. 2))	amplitude of maximum effect [2]	lower plateau [2]	inhibition of the angiotensinogen (and AT1 receptor) response to angiotensin IV [1]	reversion of the inhibition by angiotensin IV of insulin-induced glucose uptake [2]
CC[C@H](C)[C@H](NC(=O)[C@H](Cc1ccc(O)cc1)NC(=O)[C@@H](N)C(C)C)C(=O)N[C@@H](Cc1cnc[nH]1)C(=O)N1CCC[C@H]1C(=O)N[C@@H](Cc1ccccc1)C(=O)O [angiotensin IV, Val-Tyr-Ile-His-Pro-Phe]	reduces	stimulating	58.0%±2.3%	41.9±1.4	–	–
CCC(C)[C@H](NC(=O)[C@H](Cc1ccc(O)cc1)NC(=O)C(CN)C(C)C)C(=O)N[C@@H](Cc1c[nH]cn1)C(=O)N1CCC[C@H]1C(=O)N[C@H](CC(=O)O)Cc1ccccc1 (stereo partly drawn) [compound AL-11, H-β^2hVal-Tyr-Ile-His-Pro-β^3hPhe-OH] (X1-Y[Ile(3ξ)]HP[β3hF]-OH)	–	–	–	–	inhibition; also recorded: much more powerful in preventing the response	reversion
LVV-hemorphin-7	–	–	–	–	no activity	no activity
CC(C)[C@H](N)CN[C@@H](Cc1ccc(O)cc1)C(=O)N[C@H](CN[C@@H](Cc1c[nH]cn1)C(=O)N1CCC[C@H]1C(=O)N[C@@H](Cc1ccccc1)C(=O)O)C(C)C [divalinal, N-Val-(CH2—NH)-Tyr-Val(CH2—NH)-His-Pro-Phe]	–	–	–	–	inhibition; also recorded: weaker depressor of the maximum response	reversion
Angiotensin II: angiotensin peptide hormone acting on AT1 and AT2 receptors, used for comparison (DRVYIHPF; Angiotensin-2; UniProt P01019 25-32, looked up)	–	–	42.2%±6.4%	56.3±4.5	–	–
